Measurements published in US20100022648A1, “ORAL USE OF AT LEAST ONE MONOUNSATURATED FATTY ACID FOR HAIR IMPROVEMENT” (L'OREAL, priority 2006, published 2010).
Marks after values point to notes of the source that are not given here.

Test system: dermal fibroblasts
Assay: Formation of glycation products in cultures of dermal fibroblasts (Dot Blot immunodetection, densitometric analysis)
Type: cell-based
Conditions: culture of dermal fibroblasts; for % GP relative to the control: GP = glycation products, Aminoguanidine 1 mg/ml, Petroselinic acid 0.885 mM, control = 100, p < 0.01; for decrease in the formation of glycation products relative to the control: same concentrations as Table 1
Method: Dermal fibroblasts are cultured by the usual techniques that are well known by a person skilled in the art.
The glycation products are quantified by densitometric analysis of the spots in immunodetection of the glycation products (Dot Blot method), relative to a control (culture of fibroblasts without addition of the product).
Thus, aminoguanidine reduces the amount of glycation product relative to the control by 58%.
In another case, the culture of fibroblasts is supplemented with petroselinic acid.

| SMILES | % GP relative to the control | % GP relative to the control (listed as aminoguanidine) [%] | decrease in the formation of glycation products relative to the control [%] | % GP relative to the control (listed as petroselinic acid) [%] |
| --- | --- | --- | --- | --- |
| N=C(N)NN [Aminoguanidine, aminoguanidine] | 42* % | 42 | 58 |  |
| CCCCCCCCCCC/C=C\CCCCC(=O)O [Petroselinic acid, petroselinic acid] | 73* % |  | 27 | 73 |
